The source made the active and inactive calls.
Key:
[1] = biological target: Sphingosine 1-phosphate receptor 1 (Homo sapiens, UniProt P21453); type: functional;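 further: Tango beta-arrestin reporter U2OS cells stimulated with S1P near its EC80; inhibitor potency meaning antagonism of receptor activation by the natural agonist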
[2] = biological target: T1, Hexokinase HKDC1 (Homo sapiens, UniProt Q2TB90); assay: HKDC1 hexokinase inhibitors, dose response, biochemical, W721R variant (AID 504729); type: functional
T1 sequence (Q2TB90 whole entry): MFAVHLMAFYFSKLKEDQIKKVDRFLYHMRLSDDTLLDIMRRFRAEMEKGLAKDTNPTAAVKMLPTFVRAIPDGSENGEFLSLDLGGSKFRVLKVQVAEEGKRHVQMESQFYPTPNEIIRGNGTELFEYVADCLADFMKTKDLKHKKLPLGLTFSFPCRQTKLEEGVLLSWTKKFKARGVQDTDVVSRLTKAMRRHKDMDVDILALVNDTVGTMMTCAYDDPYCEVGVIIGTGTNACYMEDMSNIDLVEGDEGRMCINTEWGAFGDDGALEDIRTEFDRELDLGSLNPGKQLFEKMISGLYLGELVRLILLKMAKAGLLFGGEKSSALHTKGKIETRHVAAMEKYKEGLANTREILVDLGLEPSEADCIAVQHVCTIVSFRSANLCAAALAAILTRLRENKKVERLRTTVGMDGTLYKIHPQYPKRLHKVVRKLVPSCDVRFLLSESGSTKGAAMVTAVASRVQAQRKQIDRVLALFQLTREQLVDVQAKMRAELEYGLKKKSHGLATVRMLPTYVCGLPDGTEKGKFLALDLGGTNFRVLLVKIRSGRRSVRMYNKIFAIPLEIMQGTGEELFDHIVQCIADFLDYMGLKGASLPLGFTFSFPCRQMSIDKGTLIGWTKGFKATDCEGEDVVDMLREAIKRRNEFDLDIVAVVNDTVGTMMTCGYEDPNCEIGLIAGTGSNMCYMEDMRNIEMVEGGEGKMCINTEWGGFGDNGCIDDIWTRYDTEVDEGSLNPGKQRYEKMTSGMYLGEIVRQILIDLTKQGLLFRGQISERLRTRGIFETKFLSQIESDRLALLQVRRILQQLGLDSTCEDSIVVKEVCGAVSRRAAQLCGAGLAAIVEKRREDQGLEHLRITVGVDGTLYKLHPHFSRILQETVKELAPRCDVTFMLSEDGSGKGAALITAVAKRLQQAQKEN

[3] = biological target: T2, Replicative DNA helicase DnaB (Mycobacterium tuberculosis, UniProt P9WMR3); assay: DnaB intein splicing inhibitors, dose response, biochemical, cell-free fluorescence (AID 449749); type: functional
T2 sequence (P9WMR3 whole entry): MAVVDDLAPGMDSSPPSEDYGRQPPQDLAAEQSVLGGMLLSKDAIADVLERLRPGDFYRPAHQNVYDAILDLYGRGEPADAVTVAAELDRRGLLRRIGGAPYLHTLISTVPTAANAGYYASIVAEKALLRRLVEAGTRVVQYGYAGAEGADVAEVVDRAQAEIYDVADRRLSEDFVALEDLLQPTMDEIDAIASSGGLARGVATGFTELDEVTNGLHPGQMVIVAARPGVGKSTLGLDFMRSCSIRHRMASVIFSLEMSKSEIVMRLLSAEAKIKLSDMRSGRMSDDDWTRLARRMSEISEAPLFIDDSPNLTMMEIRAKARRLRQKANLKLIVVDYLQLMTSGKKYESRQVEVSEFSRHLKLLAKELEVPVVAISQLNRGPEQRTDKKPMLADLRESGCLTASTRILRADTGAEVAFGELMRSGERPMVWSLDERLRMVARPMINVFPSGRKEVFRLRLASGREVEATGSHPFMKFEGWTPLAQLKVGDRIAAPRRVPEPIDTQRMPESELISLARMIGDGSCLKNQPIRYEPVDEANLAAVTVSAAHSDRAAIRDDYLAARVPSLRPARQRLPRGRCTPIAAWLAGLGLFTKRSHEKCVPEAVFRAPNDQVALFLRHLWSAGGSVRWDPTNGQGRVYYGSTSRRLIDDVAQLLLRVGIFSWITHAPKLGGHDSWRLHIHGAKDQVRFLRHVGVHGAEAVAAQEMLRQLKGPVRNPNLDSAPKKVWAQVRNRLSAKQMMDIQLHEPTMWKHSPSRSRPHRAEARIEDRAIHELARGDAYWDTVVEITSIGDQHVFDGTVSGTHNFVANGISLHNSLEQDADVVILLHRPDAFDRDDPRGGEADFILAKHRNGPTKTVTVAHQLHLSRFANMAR

[4] = biological target: T3, Mitochondrial peptide methionine sulfoxide reductase (Bos taurus, UniProt P54149); type: functional;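 further: absorbance read-out, biochemical high-throughput dose-response screen for MsrA inhibitors, confirmatory; recombinant bovine MsrA coupled to E. coli TrxB with NADPH and selenocystamine; potency is for inhibitors of MsrA activity on DMSO substrate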
T3 sequence (P54149 whole entry): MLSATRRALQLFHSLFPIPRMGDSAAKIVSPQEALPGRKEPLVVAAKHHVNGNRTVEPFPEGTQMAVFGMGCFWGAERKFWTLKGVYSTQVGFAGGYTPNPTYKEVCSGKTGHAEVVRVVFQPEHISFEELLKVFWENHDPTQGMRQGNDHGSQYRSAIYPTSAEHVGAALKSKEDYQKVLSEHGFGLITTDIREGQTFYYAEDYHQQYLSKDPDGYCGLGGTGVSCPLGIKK

[5] = ZM109 Env clade C HIV-1 fusion inhibitors, dose response, HeLa effector, CEM target cells, luciferase, cherry-pick (AID 652058); type: functional, cell-based
[6] = test system: BJ; assay: cytotoxicity toward BJ-TERT fibroblasts, dose response, cell-based, RAS-independent, luminescence (AID 1933); type: functional; details: Homo sapiens
[7] = Luminescence Cell-Based Dose Response HTS to Identify Inhibitors of 5'UTR Stem-Loop Driven Prion Protein mRNA Translation in H4 Neuroglioblastoma Cells. [Related pubchem assays: 1827 (Project Summary), 1813 (Primary HTS)]; type: functional
[8] = inhibitors of SNCA 5'UTR-driven reporter translation, confirmation, H4 neuroglioma cells, luminescence (AID 1988); type: functional, cell-based
[9] = biological target: T4, Heat shock factor protein 1 (Mus musculus, UniProt P38532); assay: HSF1 potentiators in luciferase reporter cells, confirmation, cell-based, NIH3T3, luminescence, dose retest (AID 435004); type: functional;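 further: stress induced by proteasome inhibitor MG132 added 30 min after compound; luciferase reporter driven by HSF1 response element in NIH3T3 cells; actives raise luminescence as potentiators of the MG132 stress response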
T4 sequence (P38532 whole entry): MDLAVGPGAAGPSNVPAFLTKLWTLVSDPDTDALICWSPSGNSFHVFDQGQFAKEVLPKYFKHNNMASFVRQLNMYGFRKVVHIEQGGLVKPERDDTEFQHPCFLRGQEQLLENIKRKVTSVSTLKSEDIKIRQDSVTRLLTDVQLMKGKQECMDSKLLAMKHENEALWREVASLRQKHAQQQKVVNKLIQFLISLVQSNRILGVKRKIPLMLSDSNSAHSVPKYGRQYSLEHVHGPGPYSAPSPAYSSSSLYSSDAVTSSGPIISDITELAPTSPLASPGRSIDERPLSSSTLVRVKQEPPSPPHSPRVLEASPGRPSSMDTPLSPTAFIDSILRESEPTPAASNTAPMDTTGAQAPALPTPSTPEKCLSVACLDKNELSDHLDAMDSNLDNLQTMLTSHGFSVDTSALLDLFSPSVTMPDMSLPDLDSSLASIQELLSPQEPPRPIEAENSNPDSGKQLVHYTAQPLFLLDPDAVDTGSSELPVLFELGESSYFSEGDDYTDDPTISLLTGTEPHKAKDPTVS

Sphingosine 1-phosphate receptor 1, sequence (P21453 whole entry): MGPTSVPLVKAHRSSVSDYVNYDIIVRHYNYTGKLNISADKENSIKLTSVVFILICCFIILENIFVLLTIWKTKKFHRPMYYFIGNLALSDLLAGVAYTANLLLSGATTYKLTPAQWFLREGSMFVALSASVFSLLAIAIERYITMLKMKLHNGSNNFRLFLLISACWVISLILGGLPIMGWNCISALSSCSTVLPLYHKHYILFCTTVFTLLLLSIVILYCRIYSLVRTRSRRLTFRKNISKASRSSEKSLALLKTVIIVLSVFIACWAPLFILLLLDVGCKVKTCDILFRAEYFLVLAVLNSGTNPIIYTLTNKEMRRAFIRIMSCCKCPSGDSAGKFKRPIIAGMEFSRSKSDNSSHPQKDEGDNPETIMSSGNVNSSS

Oc1c(C(c2ccccc2Cl)N2CCCC2)ccc2cccnc12 (centres undefined)
IC50 [1]: 5.93 µM (active)

CCc1ccc(S(=O)(=O)/N=C2\C=C(Nc3ccc(C(=O)O)cc3)C(=O)c3ccccc32)cc1
IC50 [2]: 6.5 µM (active)
AC50 [3]: > 380 µM (inconclusive)
IC50 [4]: 5 µM (active)
AC50 [5]: 6.74 µM (active)

COc1cccc(/C=N/Nc2ccc([N+](=O)[O-])cn2)c1O
EC50 [6]: 3.31 µM (inconclusive)
EC50 [7]: 340 nM (active)
EC50 [8]: 540 nM (active)
EC50 [9]: 3.08 µM (active)

— ChEMBL document CHEMBL1201862, “PubChem BioAssay data set” (2004)
